ChEMBL document CHEMBL1122086, “Comparison of the inhibition of Escherichia coli and Lactobacillus casei dihydrofolate reductase by 2,4-diamino-5-(substituted-benzyl)pyrimidines: quantitative structure-activity relationships, X-ray crystallography, and computer graphics in structure-activity analysis” (J Med Chem, 1982)

Target: T1, Dihydrofolate reductase (Escherichia coli) (UniProt P0ABQ4)
T1 sequence (whole entry): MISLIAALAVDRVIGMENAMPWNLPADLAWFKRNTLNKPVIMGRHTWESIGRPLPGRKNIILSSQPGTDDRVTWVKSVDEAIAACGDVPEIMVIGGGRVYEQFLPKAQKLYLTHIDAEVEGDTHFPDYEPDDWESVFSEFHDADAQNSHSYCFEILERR
Conditions: not given

SMILES | Log 1/Ki app
CS(=O)(=O)Oc1cccc(Cc2cnc(N)nc2N)c1 | 6.92
Nc1ncc(Cc2ccc(OC(F)(F)F)cc2)c(N)n1 | 6.57
COc1ccc(Cc2cnc(N)nc2N)cc1C(F)(F)F | 7.69
Nc1ncc(Cc2ccc([N+](=O)[O-])cc2)c(N)n1 | 6.2
CC(=O)Nc1ccc(Cc2cnc(N)nc2N)cc1[N+](=O)[O-] | 6.97

Target: Dihydrofolate reductase (Lactobacillus casei) (UniProt P00381)
Sequence (P00381 whole entry): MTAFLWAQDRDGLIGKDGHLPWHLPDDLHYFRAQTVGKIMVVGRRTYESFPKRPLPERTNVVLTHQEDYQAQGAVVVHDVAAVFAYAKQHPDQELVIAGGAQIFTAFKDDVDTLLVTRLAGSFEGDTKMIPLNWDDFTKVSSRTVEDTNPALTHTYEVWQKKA
Conditions: Lacticaseibacillus casei
Description: Inhibitory activity against dihydrofolate reductase (DHFR) from Lactobacillus casei (expressed as log 1/Kiapp)

SMILES | Log 1/Ki app
COCCOc1ccc(Cc2cnc(N)nc2N)cc1 | 6.05
Nc1ncc(Cc2cccc(O)c2)c(N)n1 | 5.82
Nc1ncc(Cc2cccc(CO)c2)c(N)n1 | 5.67
CS(=O)(=O)Oc1cccc(Cc2cnc(N)nc2N)c1 | 5.92
Cc1ccc(Cc2cnc(N)nc2N)cc1 | 5.83
Nc1ncc(Cc2cccc(Br)c2)c(N)n1 | 6.23
COCCOc1c(OC)cc(Cc2cnc(N)nc2N)cc1OC | 6.26
Nc1ncc(Cc2cc(O)cc(O)c2)c(N)n1 | 3.38
COCCOc1ccc(Cc2cnc(N)nc2N)cc1OCCOC | 6.51
Nc1ncc(Cc2cc(CO)cc(CO)c2)c(N)n1 | 5.73
Nc1ncc(Cc2cccc(Cl)c2)c(N)n1 | 5.9
Cc1cccc(Cc2cnc(N)nc2N)c1 | 5.78
Nc1ccc(Cc2cnc(N)nc2N)cc1 | 5.47
CCCCCCCOc1ccc(Cc2cnc(N)nc2N)cc1 | 5.36
Nc1ncc(Cc2cccc(F)c2)c(N)n1 | 5.38
CCCCOc1ccc(Cc2cnc(N)nc2N)cc1 | 6.37
Nc1ncc(Cc2ccc(OC(F)(F)F)cc2)c(N)n1 | 6.3
NC(=O)COc1cccc(Cc2cnc(N)nc2N)c1 | 5.96

SMILES | Log 1/Ki app
CCCCCCOc1ccc(Cc2cnc(N)nc2N)cc1 | 5.73
Nc1ncc(Cc2cccc(C(F)(F)F)c2)c(N)n1 | 6.16
COc1ccc(Cc2cnc(N)nc2N)cc1C(F)(F)F | 7.3
Nc1ncc(Cc2ccc(Br)cc2)c(N)n1 | 6.21
Nc1ncc(Cc2ccc(F)cc2)c(N)n1 | 5.67
COc1ccc(Cc2cnc(N)nc2N)cc1OC | 6.92
COCCOc1cccc(Cc2cnc(N)nc2N)c1 | 6.12
Nc1ncc(Cc2cccc(I)c2)c(N)n1 | 6.67
Nc1ncc(Cc2ccccc2)c(N)n1 | 5.2
Nc1ncc(Cc2ccc(O)c(O)c2)c(N)n1 | 5.84
Nc1ncc(Cc2ccc([N+](=O)[O-])cc2)c(N)n1 | 6
COCc1cccc(Cc2cnc(N)nc2N)c1 | 5.64
CCCCOCc1cccc(Cc2cnc(N)nc2N)c1 | 5.49
CC(=O)Nc1ccc(Cc2cnc(N)nc2N)cc1[N+](=O)[O-] | 6
CC(=O)Nc1ccc(Cc2cnc(N)nc2N)cc1 | 6.05
CN(C)c1ccc(Cc2cnc(N)nc2N)cc1 | 6.17
Nc1ncc(Cc2ccc(Cl)cc2)c(N)n1 | 6.19
